# Values quoted from earlier work as cited in patent US12064440B2, “Ophthalmic gel compositions of bimatoprost and timolol and associated methods” (Somerset Therapeutics, LLC, priority 2022, dated 2024).
# Conditions: under certain conditions
row,active pharmaceutical ingredient (API) stability,Structure (SMILES)
1,remain stable,"CCNC(=O)CCC/C=C\C[C@@H]1[C@@H](/C=C/[C@@H](O)CCc2ccccc2)[C@H](O)C[C@@H]1O [bimatoprost, (Z)-7-[(1R, 2R, 3R, 5S)-3,5-Dihydroxy-2-[(1E, 3S)-3-hydroxy-5-phenyl-1-pentenyl]cyclopentyl]-5-N-ethylheptenamid]"
2,degradation,CC(C)OC(=O)CCC/C=C\C[C@@H]1[C@@H](CC[C@@H](O)CCc2ccccc2)[C@H](O)C[C@@H]1O [latanoprost]
3,degradation,CC(C)OC(=O)CCC/C=C\C[C@@H]1[C@@H](/C=C/[C@@H](O)COc2cccc(C(F)(F)F)c2)[C@H](O)C[C@@H]1O [travoprost]
